Test results taken from EP1203770A1 (priority 1992, dated 1994).
pKi: −log10 of the molar value.

Target: T1, HIV-1 protease (Human immunodeficiency virus type 1 group M subtype B, UniProt P04585)
T1 construct: The protease (or proteinase), consisting of only 99 amino acids, is among the smallest enzymes known
Experiment: In vitro HIV protease inhibitory assay (HIV Protease FITC Assay)
Assay type: biochemical
Details: for inhibition at 0.123 µM / inhibition at 0.37 µM / inhibition at 1.1 µM / inhibition at 3.3 µM / inhibition at 10 µM / inhibition at 30 µM: read-out: HIV-1 Protease % Inhib; for pKi: read-out: HIV-1 FITC Ki
In short: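 Percent inhibition was read as fluorescence after avidin-bead capture and filtration separated FITC cleavage product from biotinylated substrate. Enzyme and substrate reacted 1 h, RT, dark, at pH 5.5 (0.1 M sodium acetate, 1.0 M NaCl, 0.05% NP-40).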

CCC(Cc1ccccc1)c1cc(O)c(C(c2cccc(NS(=O)(=O)c3ccc(Br)cc3)c2)C2CC2)c(=O)o1 (stereo not drawn) [Example 181, 3-(α-Cyclopropyl-meta-(4-bromophenylsulfonylamino)benzyl)-6-(α-ethylphenethyl)-4-hydroxy-2H-pyran-2-one]
inhibition at 0.123 µM (HIV-1 Dose 0.123 uM): 32.6%
inhibition at 0.37 µM (HIV-1 Dose 0.370 uM): 64.5%
inhibition at 1.1 µM (HIV-1 Dose 1.100 uM): 82.4%
inhibition at 3.3 µM (HIV-1 Dose 3.300 uM): 95.3%
inhibition at 10 µM (HIV-1 Dose 10.000 uM): 101%
inhibition at 30 µM (HIV-1 Dose 30.000 uM): 95.5%
pKi: 7.72

CCC(Cc1ccccc1)c1cc(O)c(C(c2cccc(NS(=O)(=O)c3cc(Cl)ccc3Cl)c2)C2CC2)c(=O)o1 (stereo not drawn) [Example 182, 3-(α-Cyclopropyl-meta-(2,5-dichlorophenylsulfonylamino)benzyl)-6-(α-ethylphenethyl)-4-hydroxy-2H-pyran-2-one]
inhibition at 0.123 µM (HIV-1 Dose 0.123 uM): < 10%
inhibition at 0.37 µM (HIV-1 Dose 0.370 uM): 15%
inhibition at 1.1 µM (HIV-1 Dose 1.100 uM): 45.7%
inhibition at 3.3 µM (HIV-1 Dose 3.300 uM): 71.9%
inhibition at 10 µM (HIV-1 Dose 10.000 uM): 94.9%
inhibition at 30 µM (HIV-1 Dose 30.000 uM): 96.5%

CCC(Cc1ccccc1)c1cc(O)c(C(c2cccc(NS(=O)(=O)c3ccc(C(C)(C)C)cc3)c2)C2CC2)c(=O)o1 (stereo not drawn) [Example 183, 3-(α-Cyclopropyl-meta-(4-tert-butylphenylsulfonylamino)benzyl)-6-(α-ethylphenethyl)-4-hydroxy-2H-pyran-2-one]
inhibition at 0.123 µM (HIV-1 Dose 0.123 uM): < 10%
inhibition at 0.37 µM (HIV-1 Dose 0.370 uM): 11.9%
inhibition at 1.1 µM (HIV-1 Dose 1.100 uM): 28.2%
inhibition at 3.3 µM (HIV-1 Dose 3.300 uM): 60.6%
inhibition at 10 µM (HIV-1 Dose 10.000 uM): 88.9%
inhibition at 30 µM (HIV-1 Dose 30.000 uM): 90.8%

CCC(Cc1ccccc1)c1cc(O)c(C(c2cccc(NS(=O)(=O)c3ccc(C#N)cc3)c2)C2CC2)c(=O)o1 (stereo not drawn) [Example 184, 3-(α-Cyclopropyl-meta-(4-cyanophenylsulfonylamino)benzyl)-6-(α-ethylphenethyl)-4-hydroxy-2H-pyran-2-one]
inhibition at 0.123 µM (HIV-1 Dose 0.123 uM): 65%
inhibition at 0.37 µM (HIV-1 Dose 0.370 uM): 87%
inhibition at 1.1 µM (HIV-1 Dose 1.100 uM): 94.5%
inhibition at 3.3 µM (HIV-1 Dose 3.300 uM): 99%
inhibition at 10 µM (HIV-1 Dose 10.000 uM): 102%
inhibition at 30 µM (HIV-1 Dose 30.000 uM): 102%
pKi: 8.24

CCC(Cc1ccccc1)c1cc(O)c(C(c2cccc(NS(=O)(=O)c3ccc(OC)cc3)c2)C2CC2)c(=O)o1 (stereo not drawn) [Example 185, 3-(α-Cyclopropyl-meta-(4-methoxyphenylsulfonylamino)benzyl)-6-(α-ethylphenethyl)-4-hydroxy-2H-pyran-2-one]
inhibition at 0.123 µM (HIV-1 Dose 0.123 uM): 40.5%
inhibition at 0.37 µM (HIV-1 Dose 0.370 uM): 71.4%
inhibition at 1.1 µM (HIV-1 Dose 1.100 uM): 89.1%
inhibition at 3.3 µM (HIV-1 Dose 3.300 uM): 95.9%
inhibition at 10 µM (HIV-1 Dose 10.000 uM): 103%
inhibition at 30 µM (HIV-1 Dose 30.000 uM): 92.9%

CCC(c1ccccc1)c1cc(O)c(C(CC)c2ccccc2)c(=O)o1 (stereo not drawn) [Example 186, 3-α-Ethylbenzyl-6-α-ethylbenzyl-4-hydroxy-2H-pyran-2-one]
inhibition at 0.123 µM (HIV-1 Dose 0.123 uM): < 10%
inhibition at 0.37 µM (HIV-1 Dose 0.370 uM): < 10%
inhibition at 1.1 µM (HIV-1 Dose 1.100 uM): < 10%
inhibition at 3.3 µM (HIV-1 Dose 3.300 uM): 11%
inhibition at 10 µM (HIV-1 Dose 10.000 uM): 41.6%
inhibition at 30 µM (HIV-1 Dose 30.000 uM): 61.6%
pKi: 7.65

CC[C@H](Cc1ccccc1)c1cc(O)c([C@@H](CC)c2ccccc2)c(=O)o1 [Example 189, 3-([S]-α-ethylbenzyl)-4-hydroxy-6-([R]-α-ethylphenethyl)-2H-pyran-2-one]
pKi: ~7.82

CC(C)CC1(CCc2ccccc2)CC(O)=C(C(c2ccccc2)c2ccccc2)C(=O)O1 (centres unmarked) [Example 209, 2H-Pyran-2-one, 3-diphenylmethyl-5,6-dihydro-4-hydroxy-6-(2-methylpropyl)-6-(2-phenylethyl)-]
inhibition at 0.123 µM (HIV-1 Dose 0.123 uM): < 10%
inhibition at 0.37 µM (HIV-1 Dose 0.370 uM): 12%
inhibition at 1.1 µM (HIV-1 Dose 1.100 uM): 32.2%
inhibition at 3.3 µM (HIV-1 Dose 3.300 uM): 59.9%
inhibition at 10 µM (HIV-1 Dose 10.000 uM): 76.7%
inhibition at 30 µM (HIV-1 Dose 30.000 uM): 77.8%
pKi: 7.04

CC(C)CC1(CCc2ccccc2)CC(O)=C(C(/C=C/c2ccccc2)c2ccccc2)C(=O)O1 (centres unmarked) [Example 210, 2H-Pyran-2-one, 3-(1,3-diphenyl-2-propenyl)-5.6-dihydro-4-hydroxy-6-(2-methylpropyl)-6-(2-phenylethyl)-]
inhibition at 0.123 µM (HIV-1 Dose 0.123 uM): < 10%
inhibition at 0.37 µM (HIV-1 Dose 0.370 uM): < 10%
inhibition at 1.1 µM (HIV-1 Dose 1.100 uM): 37.5%
inhibition at 3.3 µM (HIV-1 Dose 3.300 uM): 61%
inhibition at 10 µM (HIV-1 Dose 10.000 uM): 75%
inhibition at 30 µM (HIV-1 Dose 30.000 uM): 86%
pKi: 7.11

CC(C)CC1(CCc2ccccc2)CC(O)=C(C(CCc2ccccc2)c2ccccc2)C(=O)O1 (centres unmarked) [Example 211]
HIV-1 Protease % Inhib (HIV-1 Dose 0.123 uM): <10%
HIV-1 Protease % Inhib (HIV-1 Dose 0.370 uM): 21.39%
HIV-1 Protease % Inhib (HIV-1 Dose 1.100 uM): 47.29%
HIV-1 Protease % Inhib (HIV-1 Dose 3.300 uM): 66.35%
HIV-1 Protease % Inhib (HIV-1 Dose 10.000 uM): 89.15%
HIV-1 Protease % Inhib (HIV-1 Dose 30.000 uM): 92.11%
pKi: 7.19

CCC(Cc1ccccc1)c1cc(O)c(C(c2cccc(NC(=O)Nc3ccccc3)c2)C2CC2)c(=O)o1 (stereo not drawn) [Example 212, 3-(α-Cyclopropyl-meta-[(phenylaminocarbonyl)amino]benzyl)-6-(α-ethylphenethyl)-4-hydroxy-2H-pyran-2-one]
inhibition at 0.123 µM (HIV-1 Dose 0.123 uM): < 10%
inhibition at 0.37 µM (HIV-1 Dose 0.370 uM): < 10%
inhibition at 1.1 µM (HIV-1 Dose 1.100 uM): 17.8%
inhibition at 3.3 µM (HIV-1 Dose 3.300 uM): 43.2%
inhibition at 10 µM (HIV-1 Dose 10.000 uM): 67.1%
inhibition at 30 µM (HIV-1 Dose 30.000 uM): 69.6%

CCC(Cc1ccccc1)c1cc(O)c(C(c2cccc(NC(=O)NCc3ccccc3)c2)C2CC2)c(=O)o1 (stereo not drawn) [Example 213, 3-(α-Cyclopropyl-meta-[(benzylaminocarbonyl)amino]benzyl)-6-(α-ethylphenethyl)-4-hydroxy-2H-pyran-2-one]
inhibition at 0.123 µM (HIV-1 Dose 0.123 uM): < 10%
inhibition at 0.37 µM (HIV-1 Dose 0.370 uM): 12.1%
inhibition at 1.1 µM (HIV-1 Dose 1.100 uM): 30%
inhibition at 3.3 µM (HIV-1 Dose 3.300 uM): 55.4%
inhibition at 10 µM (HIV-1 Dose 10.000 uM): 83.7%
inhibition at 30 µM (HIV-1 Dose 30.000 uM): 85.8%

CCC(Cc1ccccc1)c1cc(O)c(C(c2cccc(NC(=O)Nc3ccc(OC)cc3)c2)C2CC2)c(=O)o1 (stereo not drawn) [Example 214, 3-(α-Cyclopropyl-meta-[(4-methoxyphenylaminocarbonyl)amino]benzyl)-6-(α-ethylphenethyl)-4-hydroxy-2H-pyran-2-one]
inhibition at 0.123 µM (HIV-1 Dose 0.123 uM): < 10%
inhibition at 0.37 µM (HIV-1 Dose 0.370 uM): < 10%
inhibition at 1.1 µM (HIV-1 Dose 1.100 uM): 32%
inhibition at 3.3 µM (HIV-1 Dose 3.300 uM): 66%
inhibition at 10 µM (HIV-1 Dose 10.000 uM): 79.5%
inhibition at 30 µM (HIV-1 Dose 30.000 uM): 86%

CCC(Cc1ccccc1)c1cc(O)c(C(c2cccc(NC(=O)Nc3ccc(Br)cc3)c2)C2CC2)c(=O)o1 (stereo not drawn) [Example 215, 3-(α-Cyclopropyl-meta-[(4-bromophenylaminocarbonyl)amino]benzyl)-6-(α-ethylphenethyl)-4-hydroxy-2H-pyran-2-one]
inhibition at 0.123 µM (HIV-1 Dose 0.123 uM): < 10%
inhibition at 0.37 µM (HIV-1 Dose 0.370 uM): < 10%
inhibition at 1.1 µM (HIV-1 Dose 1.100 uM): < 10%
inhibition at 3.3 µM (HIV-1 Dose 3.300 uM): 16.1%
inhibition at 10 µM (HIV-1 Dose 10.000 uM): 23.1%
inhibition at 30 µM (HIV-1 Dose 30.000 uM): 28.8%

CCC(Cc1ccccc1)c1cc(O)c(C(c2cccc(NC(=O)NS(=O)(=O)c3ccccc3)c2)C2CC2)c(=O)o1 (stereo not drawn) [Example 216, 3-(α-Cyclopropyl-meta-[(phenylsulfonylaminocarbonyl)amino]benzyl)-6-(α-ethylphenethyl)-4-hydroxy-2H-pyran-2-one]
inhibition at 0.123 µM (HIV-1 Dose 0.123 uM): < 10%
inhibition at 0.37 µM (HIV-1 Dose 0.370 uM): 29.8%
inhibition at 1.1 µM (HIV-1 Dose 1.100 uM): 61.1%
inhibition at 3.3 µM (HIV-1 Dose 3.300 uM): 85.6%
inhibition at 10 µM (HIV-1 Dose 10.000 uM): 91.5%
inhibition at 30 µM (HIV-1 Dose 30.000 uM): 90.5%
pKi: 6.91

CCCCC1(Cc2ccccc2)CC(O)=C(C(C=Cc2ccccc2)c2ccccc2)C(=O)O1 (centres unmarked) [Example 217, 2H-Pyran-2-one, 6-butyl-5,6-dihydro-3-(1,3-diphenyl-2-propenyl)-4-hydroxy-6-phenylmethyl-]
inhibition at 0.123 µM (HIV-1 Dose 0.123 uM): < 10%
inhibition at 0.37 µM (HIV-1 Dose 0.370 uM): < 10%
inhibition at 1.1 µM (HIV-1 Dose 1.100 uM): < 10%
inhibition at 3.3 µM (HIV-1 Dose 3.300 uM): 33.1%
inhibition at 10 µM (HIV-1 Dose 10.000 uM): 62.4%
inhibition at 30 µM (HIV-1 Dose 30.000 uM): 69.1%
